Test results: publication PMC5717224, “New Hybrid Hydrazinyl Thiazole Substituted Chromones: As Potential α-Amylase Inhibitors and Radical (DPPH & ABTS) Scavengers” (Scientific Reports, 2017)

Legend:
[1] = DPPH free radical scavenging assay; details: absorbance 517 nm, 20 min incubation; read-out: DPPH radical scavenging activity IC50 ± SEM
Experimental: The ability of the sample to scavenge, 2-diphenyl-1-picrylhydrazyl (DPPH) free radicals was evaluated by standard method. The sample solutions were prepared in absolute alcohol, ranging from 0.01 mg/mL to 1 mg/mL. A total of 500 μL of sample was added with 500 µL of 2 µmol DPPH solution. After 20 min of incubation, the samples were placed in the dark at room temperature, the absorbance was taken at 517 nm. 500 µL of prepared DDPH solution and 500 µL of absolute alcohol were used as control. The similar procedure was repeated for ascorbic acid as standard[41],[42].
(§1) The percentage inhibition of radical scavenging activity was calculated as illustrated, %Inhibition=(AbsorbanceControl−AbsorbanceSample)/AbsorbanceControl×100

[2] = ABTS free radical cation scavenging assay; details: absorbance 734 nm, 30 min incubation; read-out: ABTS radical scavenging activity IC50 ± SEM
Experimental: The (ABTS+) 2,2ʹ-azino-bis(3-ethylbenzothiazoline-6-sulphonic acid) free radical cation scavenging ability of the compounds was determined by standard method. 7 mM ABTS was dissolved in distilled water and 2.45 mM potassium persulfate was added. The solution was kept in the dark for 12–16 h at room temperature. The sample solutions were prepared in absolute alcohol ranging from 0.01 mg/mL to 1 mg/mL. The samples were added with ABTS solution and incubated for 30 min. The absorbance was taken at 734 nm and the procedure was repeated for ascorbic acid as standard.
as §1

| IC50 [1] [nM] | IC50 [2] [nM] | melting point [°C] | Compound |
| --- | --- | --- | --- |
| 990 ± 120 | 1020 ± 40 | 230 to 232 | Cc1ccc2occ(/C=N\Nc3nc(-c4cccc(Cl)c4)cs3)c(=O)c2c1 [Compound 24, (Z)-3-((2-(4-(3-Chlorophenyl)thiazol-2-yl)hydrazono)methyl)-6-methyl-4H-chromen-4-one] |
| 1370 ± 200 | 1320 ± 200 | 235 to 237 | Cc1ccc2occ(/C=N\Nc3nc(-c4ccccc4)cs3)c(=O)c2c1 [Compound 16, (Z)-6-Methyl-3-((2-(4-phenylthiazol-2-yl)hydrazono)methyl)-4H-chromen-4-one] |
| 684 ± 130 | 710 ± 90 | 245 to 247 | Cc1ccc2occ(/C=N\Nc3nc(-c4ccc(Cl)cc4Cl)cs3)c(=O)c2c1 [Compound 21, (Z)-3-((2-(4-(2,4-Dichlorophenyl)thiazol-2-yl)hydrazono)methyl)-6-methyl-4H-chromen-4-one] |
| 611 ± 290 | 660 ± 160 | 235 to 237 | Cc1ccc2occ(/C=N\Nc3nc(-c4ccc(Br)cc4)cs3)c(=O)c2c1 [Compound 20, (Z)-3-((2-(4-(4-Bromophenyl)thiazol-2-yl)hydrazono)methyl)-6-methyl-4H-chromen-4-one] |
| 1310 ± 60 | 1300 ± 110 | 240 to 242 | Cc1ccc2occ(/C=N\Nc3nc(-c4cccc([N+](=O)[O-])c4)cs3)c(=O)c2c1 [Compound 25, (Z)-6-Methyl-3-((2-(4-(3-nitrophenyl)thiazol-2-yl)hydrazono)methyl)-4H-chromen-4-one] |
| 1660 ± 600 | 1730 ± 50 | 230 to 232 | Cc1ccc2occ(/C=N\Nc3nc(-c4ccccc4O)cs3)c(=O)c2c1 [Compound 18, (Z)-3-((2-(4-(2-Hydroxyphenyl)thiazol-2-yl)hydrazono)methyl)-6-methyl-4H-chromen-4-one] |
| 688 ± 170 | 719 ± 100 | 246 to 248 | Cc1ccc2occ(/C=N\Nc3nc(-c4ccc(Cl)c(Cl)c4)cs3)c(=O)c2c1 [Compound 22, (Z)-3-((2-(4-(3,4-Dichlorophenyl)thiazol-2-yl)hydrazono)methyl)-6-methyl-4H-chromen-4-one] |
| 1410 ± 50 | 1640 ± 40 | 234 to 236 | O=c1c(/C=N\Nc2nc(-c3ccc(-c4ccccc4)cc3)cs2)coc2ccccc12 [Compound 15, (Z)-3-((2-(4-(Biphenyl-4-yl)thiazol-2-yl)hydrazono)methyl)-4H-chromen-4-one] |
| 1300 ± 130 | 1280 ± 40 | 238 to 240 | Cc1ccc2occ(/C=N\Nc3nc(-c4ccc(C#N)cc4)cs3)c(=O)c2c1 [Compound 26, (Z)-4-(2-(2-((6-Methyl-4-oxo-4H-chromen-3-yl)methylene)hydrazinyl)thiazol-4-yl)benzonitrile] |
| 781 ± 180 | 584 ± 70 |  | Cc1ccc2occ(/C=N\Nc3nc(-c4cccc(Br)c4)cs3)c(=O)c2c1 [Compound 19, (Z)-3-((2-(4-(3-Bromophenyl)thiazol-2-yl)hydrazono)methyl)-6-methyl-4H-chromen-4-one] |
| 1340 ± 70 | 1290 ± 70 | 235 to 237 | Cc1ccc2occ(/C=N\Nc3nc(-c4ccc(-c5ccccc5)cc4)cs3)c(=O)c2c1 [Compound 27, (Z)-3-((2-(4-(Biphenyl-4-yl)thiazol-2-yl)hydrazono)methyl)-6-methyl-4H-chromen-4-one] |
| 840 ± 100 | 820 ± 180 | 245 to 247 | Cc1ccc2occ(/C=N\Nc3nc(-c4ccc(Cl)cc4)cs3)c(=O)c2c1 [Compound 23, (Z)-3-((2-(4-(4-Chlorophenyl)thiazol-2-yl)hydrazono)methyl)-6-methyl-4H-chromen-4-one] |
| 1340 ± 90 | 1380 ± 50 | 237 to 239 | Cc1ccc2occ(/C=N\Nc3nc(-c4cccc(O)c4)cs3)c(=O)c2c1 [Compound 17, (Z)-3-((2-(4-(3-Hydroxyphenyl)thiazol-2-yl)hydrazono)methyl)-6-methyl-4H-chromen-4-one] |

The next lines start with the compound.

| Compound | IC50 [1] [nM] | IC50 [2] [nM] | melting point [°C] |
| --- | --- | --- | --- |
| Cc1ccc2occ(C=O)c(=O)c2c1 [Compound 2, 6-Methyl-4-oxo-4H-chromene-3-carbaldehyde] | 2230 ± 600 | 2230 ± 60 | 173 to 175 |
| O=c1c(/C=N\Nc2nc(-c3cccc([N+](=O)[O-])c3)cs2)coc2ccccc12 [Compound 13, (Z)-3-((2-(4-(3-Nitrophenyl)thiazol-2-yl)hydrazono)methyl)-4H-chromen-4-one] | 1740 ± 40 | 1890 ± 50 | 235 to 237 |
| O=c1c(/C=N\Nc2nc(-c3ccccc3)cs2)coc2ccccc12 [Compound 5, (Z)-3-((2-(4-Phenylthiazol-2-yl)hydrazono)methyl)-4H-chromen-4-one] | 1110 ± 150 | 1080 ± 150 | 223 to 225 |
| NC(=S)N/N=C\c1coc2ccccc2c1=O [Compound 3, (Z)-2-((4-Oxo-4H-chromen-3-yl)methylene) hydrazinecarbothioamide] | 1900 ± 60 | 1920 ± 90 | 240 to 242 |
| O=c1c(/C=N\Nc2nc(-c3ccc(Cl)c(Cl)c3)cs2)coc2ccccc12 [Compound 9, (Z)-3-((2-(4-(3,4-Dichlorophenyl)thiazol-2-yl)hydrazono)methyl)-4H-chromen-4-one] | 314 ± 120 | 784 ± 120 | 245 to 247 |
| Cc1ccc2occ(/C=N\NC(N)=S)c(=O)c2c1 [Compound 4, (Z)-2-((6-Methyl-4-oxo-4H-chromen-3-yl)methylene)hydrazinecarbothioamide] | 1140 ± 120 | 1260 ± 100 | 245 to 247 |
| N#Cc1ccc(-c2csc(N/N=C\c3coc4ccccc4c3=O)n2)cc1 [Compound 14, (Z)-4-(2-(2-((4-Oxo-4H-chromen-3-yl)methylene)hydrazinyl)thiazol-4-yl)benzonitrile] | 1290 ± 100 | 1260 ± 70 | 225 to 227 |
| O=c1c(/C=N\Nc2nc(-c3cccc(Cl)c3)cs2)coc2ccccc12 [Compound 12, (Z)-3-((2-(4-(3-Chlorophenyl)thiazol-2-yl)hydrazono)methyl)-4H-chromen-4-one] | 1050 ± 30 | 1080 ± 80 | 228 to 230 |
| O=c1c(/C=N\Nc2nc(-c3cccc(O)c3)cs2)coc2ccccc12 [Compound 6, (Z)-3-((2-(4-(3-Hydroxyphenyl)thiazol-2-yl)hydrazono)methyl)-4H-chromen-4-one] | 1900 ± 30 | 1892 ± 10 |  |
| O=c1c(/C=N\Nc2nc(-c3ccc(Cl)cc3Cl)cs2)coc2ccccc12 [Compound 10, (Z)-3-((2-(4-(2,4-Dichlorophenyl)thiazol-2-yl)hydrazono)methyl)-4H-chromen-4-one] | 90 ± 170 | 677 ± 260 | 243 to 245 |
| O=C1O[C@H]([C@@H](O)CO)C(O)=C1O [Ascorbic acid, reference compound] | 330 ± 180 | 530 ± 300 |  |
| O=c1c(/C=N\Nc2nc(-c3ccc(Cl)cc3)cs2)coc2ccccc12 [Compound 11, (Z)-3-((2-(4-(4-Chlorophenyl)thiazol-2-yl)hydrazono)methyl)-4H-chromen-4-one] | 922 ± 220 | 918 ± 140 | 239 to 241 |
| O=Cc1coc2ccccc2c1=O [Compound 1, 4-Oxo-4H-chromene-3-carbaldehyde] | 2230 ± 790 | 3740 ± 600 |  |
| O=c1c(/C=N\Nc2nc(-c3cccc(Br)c3)cs2)coc2ccccc12 [Compound 8, (Z)-3-((2-(4-(3-Bromophenyl)thiazol-2-yl)hydrazono)methyl)-4H-chromen-4-one] | 912 ± 230 | 914 ± 190 | 225 to 227 |
| O=c1c(/C=N\Nc2nc(-c3ccc(Br)cc3)cs2)coc2ccccc12 [Compound 7, (Z)-3-((2-(4-(4-Bromophenyl)thiazol-2-yl)hydrazono)methyl)-4H-chromen-4-one] | 892 ± 90 | 830 ± 250 | 230 to 232 |
